Experimental data as given in patent US20070027143A1, “Novel substituted 2,3-benzodiazepine derivatives” (priority 2003, published 2007).

SMILES	melting point
CC(=O)Nc1ccc(C2=NN(C3=NCCS3)C(C)Cc3cc4c(cc32)OCO4)cc1 (racemic) [Example 122, (±)-5-(4-Acetylaminophenyl)-7-(4,5-dihydro-thiazol-2-yl)-8-methyl-8,9-dihydro-7H-1,3-dioxolo-[4,5-h][2,3]benzodiazepine]	211 to 213 °C
Cc1cc(C2=NN(c3nnc(CO)s3)[C@H](C)Cc3cc4c(cc32)OCO4)ccc1N [Example 171, (R)-5-(4-Amino-3-methylphenyl)-7-(5-hydroxymethyl-1,3,4-thiadiazol-2-yl)-8-methyl-8,9-dihydro-7H-1,3-dioxolo[4,5-h][2,3]benzodiazepine]	184 to 186 °C
CC1Cc2cc3c(cc2C(c2ccc(N)cc2)=NN1c1ncn(C)n1)OCO3 (racemic) [Example 116, (±)-5-(4-Aminophenyl)-8-methyl-7-(1-methyl-1H-1,2,4-triazol-3-yl)-8,9-dihydro-7H-1,3-dioxolo-[4,5-h][2,3]benzodiazepine]	165 to 168 °C
Cc1nnc(N2N=C(c3cccc(N)c3)c3cc4c(cc3CC2C)OCO4)s1 (racemic) [Example 97, (±)-5-(3-Aminophenyl)-8-methyl-7-(5-methyl-1,3,4-thiadiazol-2-yl)-8,9-dihydro-7H-1,3-dioxolo-[4,5-h][2,3]benzodiazepine]	197 to 198 °C
C/C=C/c1nnc(N2N=C(c3ccc([N+](=O)[O-])c(C)c3)c3cc4c(cc3C[C@H]2C)OCO4)s1 [Example 146, (R)-8-Methyl-5-(3-methyl-4-nitrophenyl)-7-{5-[1-(1E)-propen-1-yl]-1,3,4-thiadiazol-2-yl}-8,9-dihydro-7H-1,3-dioxolo[4,5-h][2,3]benzodiazepine]	232 to 237 °C
CC1=Cc2cc3c(cc2C(c2ccc(C)c(N)c2)=NN1c1nnc(C)s1)OCO3 [Example 96, (±)-5-(3-Amino-4-methylphenyl)-8-methyl-7-(5-methyl-1,3,4-thiadiazol-2-yl)-7H-1,3-dioxolo-[4,5-h][2,3]benzodiazepine]	125 °C
CC1Cc2cc3c(cc2C(c2ccc([N+](=O)[O-])cc2)=NN1c1nnc(-c2ccccc2)s1)OCO3 (racemic) [Example 33, (±)-8-Methyl-5-(4-nitrophenyl)-7-(5-phenyl-1,3,4-thiadiazol-2-yl)-8,9-dihydro-7H-1,3-dioxolo[4,5-h][2,3]benzodiazepine]	210 to 212 °C
CC1Cc2ccc(Cl)cc2C(c2ccc(N)cc2)=NN1C1=NC(=O)CS1 (racemic) [Example 80, (±)-1-(4-Aminophenyl)-3-(4,5-dihydro-4-oxo-thiazol-2-yl)-8-chloro-4-methyl-4,5-dihydro-3H-[2,3]benzodiazepine]	226 to 228 °C
C[C@H]1Cc2cc3c(cc2C(c2ccc(N)cc2)=NN1c1nccs1)OCO3 [Example 62, (S)-5-(4-Aminophenyl)-8-methyl-7-(2-thiazolyl)-8,9-dihydro-7H-1,3-dioxolo[4,5-h][2,3]benzodiazepine]	124 to 128 °C
CSCc1nnc(N2N=C(c3ccc(N)c(C)c3)c3cc4c(cc3C[C@H]2C)OCO4)s1 [Example 174, (R)-5-(4-Amino-3-methylphenyl)-8-methyl-7-(5-methylthiomethyl-1,3,4-thiadiazol-2-yl)-8,9-dihydro-7H-1,3-dioxolo[4,5-h][2,3]benzodiazepine]	177 to 180 °C
Cc1cc(C2=NN(c3nnc(CN)s3)[C@H](C)Cc3cc4c(cc32)OCO4)ccc1N [Example 176, (R)-5-(4-Amino-3-methylphenyl)-7-(5-aminomethyl-1,3,4-thiadiazol-2-yl)-8-methyl-8,9-dihydro-7H-1,3-dioxolo[4,5-h][2,3]benzodiazepine]	139 to 140 °C
Cc1nnc(N2N=C(c3ccc(N)cc3)c3cc4c(cc3C[C@H]2C)OCO4)s1 (hydrate or solvate) [Example 86, (R)-5-(4-Aminophenyl)-8-methyl-7-(5-methyl-1,3,4-thiadiazol-2-yl)-8,9-dihydro-7H-1,3-dioxolo-[4,5-h][2,3]benzodiazepine]	168 to 170 °C
Cc1cc(C2=NN(c3nccs3)[C@H](C)Cc3cc4c(cc32)OCO4)ccc1N [Example 164, (R)-5-(4-Amino-3-methylphenyl)-8-methyl-7-(thiazol-2-yl)-8,9-dihydro-7H-1,3-dioxolo-[4,5-h][2,3]benzodiazepine]	124 to 127 °C
Cc1csc(N2N=C(c3ccc(N)cc3)c3cc(Cl)ccc3CC2C)n1 (racemic) [Example 78, (±)-1-(4-Aminophenyl)-8-chloro-4-methyl-3-(4-methyl-thiazol-2-yl)-4,5-dihydro-3H-[2,3]benzodiazepine]	173 to 175 °C
Cc1nnc(N2N=C(c3ccc(N)cc3)c3cc(Cl)ccc3CC2C)s1 (racemic) [Example 94, (±)-1-(4-Aminophenyl)-8-chloro-4-methyl-3-(5-methyl-1,3,4-thiadiazol-2-yl)-4,5-dihydro-3H-[2,3]benzodiazepine]	131 to 133 °C
CC(=O)Nc1ccc(C2=NN(c3nccs3)[C@H](C)Cc3cc4c(cc32)OCO4)cc1 [Example 123, (R)-5-(4-Acetylaminophenyl)-8-methyl-7-(2-thiazolyl)-8,9-dihydro-7H-1,3-dioxolo[4,5-h][2,3]benzodiazepine]	126 °C

SMILES	melting point
CC(=O)OCc1nnc(N2N=C(c3ccc(N)c(C)c3)c3cc4c(cc3C[C@H]2C)OCO4)s1 [Example 172, (R)-7-(5-Acetoxymethyl-1,3,4-thiadiazol-2-yl)-5-(4-amino-3-methylphenyl)-8-methyl-8,9-dihydro-7H-1,3-dioxolo[4,5-h][2,3]benzodiazepine]	204 to 206 °C
Cc1cnc(N2N=C(c3ccc(N)cc3)c3cc4c(cc3CC2C)OCO4)s1 (racemic) [Example 64, (±)-5-(4-Aminophenyl)-8-methyl-7-(5-methyl-thiazol-2-yl)-8,9-dihydro-7H-1,3-dioxolo-[4,5-h][2,3]benzodiazepine]	165 to 167 °C
Cc1ncc(N2N=C(c3ccc(N)cc3)c3cc4c(cc3CC2C)OCO4)o1 (racemic) [Example 187, (±)-5-(4-Aminophenyl)-8-methyl-7-(2-methyl-1,3-oxazol-5-yl)-8,9-dihydro-7H-1,3-dioxolo-[4,5-h][2,3]benzodiazepine]	148 to 150 °C
CC1Cc2cc3c(cc2C(c2ccc(N)cc2)=NN1c1nnc(C2CC2)s1)OCO3 (racemic) [Example 87, (±)-5-(4-Aminophenyl)-7-(5-cyclopropyl-1,3,4-thiadiazol-2-yl)-8-methyl-8,9-dihydro-7H-1,3-dioxolo[4,5-h][2,3]benzodiazepine]	145 to 148 °C
CC1=Cc2cc3c(cc2C(c2ccc(N)cc2)=NN1c1ncon1)OCO3.Cl	124 to 126 °C
Cc1csc(N2N=C(c3ccc(N)cc3)c3cc(Cl)c(Cl)cc3CC2C)n1 (racemic) [Example 81, (±)-1-(4-Aminophenyl)-7,8-dichloro-3-(4-methyl-thiazol-2-yl)-4-methyl-4,5-dihydro-3H-[2,3]benzodiazepine]	182 to 184 °C
CC(=O)Nc1ccc(C2=NN(c3ccc(Cl)nn3)C(C)Cc3cc4c(cc32)OCO4)cc1 (racemic) [Example 129, (±)-5-(4-Acetylaminophenyl)-7-(3-chloro-pyridazin-6-yl)-8-methyl-8,9-dihydro-7H-1,3-dioxolo-[4,5-h][2,3]benzodiazepine]	164 to 170 °C
Cc1cc(N2N=C(c3ccc(N)cc3)c3cc4c(cc3CC2C)OCO4)on1 (racemic) [Example 185, (±)-5-(4-Aminophenyl)-8-methyl-7-(3-methyl-isoxazol-5-yl)-8,9-dihydro-7H-1,3-dioxolo-[4,5-h][2,3]benzodiazepine]	100 to 103 °C
CCOC(=O)c1nnc(N2N=C(c3ccc(N)c(C)c3)c3cc4c(cc3C[C@H]2C)OCO4)s1 [Example 175, (R)-5-(4-Amino-3-methylphenyl)-7-(5-ethoxycarbonyl-1,3,4-thiadiazol-2-yl)-8-methyl-8,9-dihydro-7H-1,3-dioxolo[4,5-h][2,3]benzodiazepine]	135 to 140 °C
CCc1nnc(N2N=C(c3ccc([N+](=O)[O-])cc3)c3cc4c(cc3C[C@H]2C)OCO4)s1 [Example 31, (R)-7-(5-Ethyl-1,3,4-thiadiazol-2-yl)-8-methyl-5-(4-nitrophenyl)-8,9-dihydro-7H-1,3-dioxolo[4,5-h][2,3]benzodiazepine]	105 °C
CC1Cc2cc3c(cc2C(c2ccc(N)cc2)=NN1c1nc(C(=O)O)cs1)OCO3 (racemic) [Example 106, (±)-5-(4-Aminophenyl)-7-(4-carboxy-thiazol-2-yl)-8-methyl-8,9-dihydro-7H-1,3-dioxolo-[4,5-h][2,3]benzodiazepine]	> 260 °C (dec.)
CCCCCCc1nnc(N2N=C(c3ccc([N+](=O)[O-])c(C)c3)c3cc4c(cc3C[C@H]2C)OCO4)s1 [Example 147, (R)-7-(5-Hexyl-1,3,4-thiadiazol-2-yl)-8-methyl-5-(3-methyl-4-nitrophenyl)-8,9-dihydro-7H-1,3-dioxolo[4,5-h][2,3]benzodiazepine]	217 to 224 °C
Cc1nnc(N2N=C(c3cc(C)c(N)c(C)c3)c3cc4c(cc3C[C@H]2C)OCO4)o1 [Example 191, (R)-5-(4-Amino-3,5-dimethylphenyl)-8-methyl-7-(5-methyl-1,3,4-oxadiazol-2-yl)-8,9-dihydro-7H-1,3-dioxolo[4,5-h][2,3]benzodiazepine]	148 to 150 °C
CC1Cc2cc3c(cc2C(c2ccc(N)cc2)=NN1C1=NNC(=O)CS1)OCO3 (racemic) [Example 100, (±)-5-(4-Aminophenyl)-7-(5,6-dihydro-5-oxo-4H-1,3,4-thiadiazin-2-yl)-8-methyl-8,9-dihydro-7H-1,3-dioxolo[4,5-h][2,3]benzodiazepine]	172 to 176 °C
Cc1nnc(N2N=C(c3cc(C)c(N)c(C)c3)c3cc4c(cc3C[C@H]2C)OCO4)s1 [Example 190, (R)-5-(4-Amino-3,5-dimethylphenyl)-8-methyl-7-(5-methyl-1,3,4-thiadiazol-2-yl)-8,9-dihydro-7H-1,3-dioxolo[4,5-h][2,3]benzodiazepine]	280 to 281 °C
CC1Cc2cc3c(cc2C(c2ccc(N)cc2)=NN1c1nc(-c2ccccc2)cs1)OCO3 (racemic) [Example 66, (±)-5-(4-Aminophenyl)-7-(4-phenyl-thiazol-2-yl)-8-methyl-8,9-dihydro-7H-1,3-dioxolo-[4,5-h][2,3]benzodiazepine]	221 to 223 °C
